Earlier results in patent US8124767B2, “Luminescence biotin-transition metal complex conjugate, and method of amplifying signal using the same” (Samsung Electronics Co., Ltd., priority 2008, dated 2012).
Where two headings read alike, the source gives them in different places.

Legend:
[1] = biological target: T1, avidin (Gallus gallus, UniProt P02701); conditions: HABA, comparison value; read-out: Kd (binding to avidin); cited from earlier work
T1 construct: purchased Aldrich

[2] = excitation 310 nm, 0.02 mM 2-MeTHF, cited from earlier work

T1 sequence (P02701 25-152): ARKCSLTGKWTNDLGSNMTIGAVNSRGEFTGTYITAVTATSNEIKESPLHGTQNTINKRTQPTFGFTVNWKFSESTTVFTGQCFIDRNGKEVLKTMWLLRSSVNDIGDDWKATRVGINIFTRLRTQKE

Structure (SMILES)	Kd [1] [µM]	T360 nm, lifetime of the donor peak ([2]; 77 K) [ns]	T411 nm, lifetime of the donor peak ([2]; 77 K) [s]	T360 nm, lifetime of the donor peak ([2]; 298 K) [ns]
O=C(O)c1ccccc1N=Nc1ccc(O)cc1 [HABA, 4,4′-hydroxyazobenzene-2-carboxylic acid]	6	–	–	–
Cc1cc(-n2c3ccccc3c3ccccc32)cc(-n2c3ccccc3c3ccccc32)c1 [Probe 5mCP]	–	8.2	7.0	6.6
